Results published in publication PMC10142028, “Influence of Molecular Structure and Physicochemical Properties of Immunosuppressive Drugs on Micelle Formulation Characteristics and Cutaneous Delivery” (Pharmaceutics, 2023).
≈ marks a conversion by molar mass, not a printed value. Entries after “also recorded” stand apart in the source; their conditions may differ. Where two headings read alike, the source gives them in different places.

How the values were obtained:
[1] = Drug solubility in water and in aqueous solution of TPGS; type: physicochemical; details: for Improvement of drug water solubility by addition of 50 mg/mL TPGS: TPGS 50 mg/mL solution vs water; for solubility at 24 h: thermodynamic from solid; for Aqueous solubility: in words, measured experimentally
Procedure: The solutions were kept at room temperature during a 24 h period of stirring. The samples were then centrifuged and the supernatant was collected and diluted in ACN prior to a UHPLC-MS/MS analysis. All the samples were prepared in triplicate.

[2] = test system: Porcine ear skin; experiment: Skin delivery in vitro under infinite dose conditions and cutaneous biodistribution (Franz diffusion cells); details: micelle solution 0.2%, 12 h; for Drug deposition in skin regions (comparison): porcine skin; for Permeation across the skin (concentration, under the limit of quantification): receptor phase
Procedure: (§1) Porcine ear skin was used for skin delivery studies and was supplied by a local abattoir (CARRE; Rolle, CH). Briefly, skin samples were processed with a Zimmer air dermatome (Münsingen, Switzerland) to obtain pieces with a thickness of ∼800 µm. Hair was removed carefully from the skin surface using clippers. Circular disks of 30 mm were then punched out (Berg & Schmid HK 500; Urdorf, Switzerland) and stored at −20 °C until use, for a maximum period of 3 months.
(§2) Porcine skin samples were mounted in Franz diffusion cells (Milian SA; Meyrin, Switzerland) with a formulation contact area of 2 cm^2. In the donor compartment, the optimal micelle solution 0.2% was applied under infinite dose conditions (500 µL/cm^2) during 12 h. The receptor compartment was filled with 10 mL of phosphate buffered saline at pH 7.4 containing 1% BSA. The receiver phase was stirred at 250 rpm and maintained at 32 °C throughout the experiment. […] After the experiment, 1 mL of this phase was withdrawn to quantify drug permeation. Samples were diluted in ACN to precipitate BSA. After centrifugation at 5000 rpm at 4 °C during 15 min, the permeation samples were analysed by UHPLC-MS/MS. Each skin sample was carefully cleaned with a cotton swab and a wash solution to remove the residual formulation from skin surface.
(§3) At the end of the experiment, a small area, 0.8 cm^2, was punched out from the 2 cm^2 skin samples. These skin discs were snap-frozen in isopentane cooled by liquid nitrogen, followed by cryotoming (Thermo Scientific CryoStarTM NX70; Reinach, Switzerland) to obtain two lamellae with a thickness of 20 µm and 19 lamellae with a thickness of 40 μm. […] Drug deposited in each lamella was extracted in 300 µL of ACN overnight with continuous stirring at room temperature. The extraction samples were centrifuged at 5000 rpm for 10 min and diluted prior to UHPLC-MS/MS analysis.

[3] = source not given; cited from earlier work
[4] = test system: skin (porcine or human); design: method as in PMID 16176283, PMID 14698574; details: independent of skin origin (porcine or human) and formulation composition; cited from earlier work
[5] = test system: skin proteins; design: method as in PMID 18524871; details: compared to TAC; cited from earlier work
[6] = Drug content determination of micelle formulations (UHPLC-UV); type: physicochemical; details: for Drug content of Formulation 5: Formulation 5, corresponds to approximately 2.3 mg/mL; for Water solubility reached by polymeric micelle formulation: corresponding to approximately 4.5 mg/mL
Procedure: Micelle formulations were prepared using the thin-film hydration method. […] The acetone was slowly removed by rotary evaporation (Büchi Vac V-513 Rotavapor®; Flawil, Switzerland) until the formation of a uniform thin-film, which was left under the hood overnight and then hydrated with 4 mL of ultrapure water. After equilibration for 2 h, the micelle solution was centrifuged at 10,000 rpm for 15 min (Eppendorf Centrifuge 5804; Hamburg, Germany) to remove excess drug, and the supernatant was carefully collected.
The micelle formulation was optimized in order to reach a high drug loading. […] The formulation with the highest drug content, which satisfied reproducibility and stability criteria, was chosen for the subsequent in vitro release and skin delivery studies. Drug loading was determined by UHPLC-UV.
The amount of drug loaded in the micelles was quantified by UHPLC-UV. To ensure the complete destruction of the micelles and the release of encapsulated drug, samples were diluted in ACN prior to analysis. (1) Drug contentmgdrug/mLformulation=mass of drug in the formulationmg/volume of the formulationmL (2) Drug loadingmgdrug/gpolymer=drug in the formulationmg mL^−1/copolymer in the formulationg mL^−1 (3) Incorporation efficiency%=mass of drug incorporated in micellesmg/mass of drug introducedmg×100

[7] = Stability of the micelle solution after storage at 4 °C for 5 months; type: physicochemical; details: Formulation 6 (target 5 mg/mL), followed for 5 months
Procedure: Stability of the micelle solution was evaluated after storage at 4 °C for 5 months. Drug content and micelle size were determined at a series of time points (day 1, and then after 1, 2, 3, 4, and 5 months).

[8] = test system: Porcine ear skin; details: pig, 12 h, 0.2 %, pH 7.4
Procedure: as §1, §2, §3

[9] = aqueous solution of TPGS (50 mg/mL), aqueous with cosolvent or surfactant or cyclodextrin, Drug solubility at TPGS concentration (33 mM or 50 mg/mL), room temperature, 24 h
[10] = aqueous solution of TPGS (50 mg/mL), aqueous with cosolvent or surfactant or cyclodextrin, Solubility on simple addition of the drug in the aqueous solution of TPGS, TPGS 50 mg/mL
[11] = water, water, room temperature, 24 h stirring, read-out: Drug solubility in water

Solubility on simple addition of the drug in the aqueous solution of TPGS ([1]; TPGS 50 mg/mL) | Permeation across the skin (concentration, under the limit of quantification) [8] | SMILES | Improvement of drug water solubility by addition of 50 mg/mL TPGS [1] | solubility at 24 h [1, 9] | solubility at 24 h [1, 10] | Aqueous solubility [1] | solubility at 24 h [1, 11] | Drug deposition in skin regions (comparison) [2] | Permeation across the skin (concentration, under the limit of quantification) [2] | Ionizable [3] | Permeation across the skin (comparison) [4] | Affinity/binding to skin components (comparison) [5] | Drug content of Formulation 5 [6] | Water solubility reached by polymeric micelle formulation [6] | Stability of Formulation 6 in terms of drug content [7]
– | – | CC[C@@H]1/C=C(\C)C[C@H](C)C[C@H](OC)[C@H]2O[C@@](O)(C(=O)C(=O)N3CCCC[C@H]3C(=O)O[C@H](/C(C)=C/[C@@H]3CC[C@H](Cl)[C@H](OC)C3)[C@H](C)[C@@H](O)CC1=O)[C@H](C)C[C@@H]2OC [PIM, pimecrolimus] | 1943 fold | 330 ± 31.2 µM (≈ 268 µg/mL) | 300 µM (≈ 243 µg/mL) | Poor | 0.17 ± 0.02 µM (≈ 0.138 µg/mL) | high percentage of PIM was delivered in the stratum corneum; also recorded: higher in the viable epidermis in comparison to SIR and TAC; also recorded: significantly higher in the upper region of the skin (20–180 µm) | < 3 ng/mL | No | lower than TAC | stronger affinity with the components of the upper layers of the skin compared to TAC; also recorded: higher capacity-binding to other skin proteins | 2.8 mM | 5600 µM | remained stable during the 5 months
1200 µM | < 3 ng/mL | CO[C@H]1C[C@@H]2CC[C@@H](C)[C@@](O)(O2)C(=O)C(=O)N2CCCC[C@H]2C(=O)O[C@H]([C@H](C)C[C@@H]2CC[C@@H](O)[C@H](OC)C2)CC(=O)[C@H](C)/C=C(\C)[C@@H](O)[C@@H](OC)C(=O)[C@H](C)C[C@H](C)/C=C/C=C/C=C/1C [SIR, sirolimus] | 147 fold | 1210 ± 124 µM (≈ 1110 µg/mL) | – | Poor | 8.24 ± 0.22 µM (≈ 7.53 µg/mL) | – | – | No | – | – | 2.5 mM | 4900 µM | became unstable after 4 months
– | – | C=CC[C@@H]1/C=C(\C)C[C@H](C)C[C@H](OC)[C@H]2O[C@@](O)(C(=O)C(=O)N3CCCC[C@H]3C(=O)O[C@H](/C(C)=C/[C@@H]3CC[C@@H](O)[C@H](OC)C3)[C@H](C)[C@@H](O)CC1=O)[C@H](C)C[C@@H]2OC [TAC, tacrolimus] | 3184 fold | 637 ± 73.5 µM (≈ 512 µg/mL) | 600 µM (≈ 482 µg/mL) | Poor | 0.2 ± 0.05 µM (≈ 0.161 µg/mL) | large percentage of skin deposition in the dermis | < 3 ng/mL | No | – | – | 2.9 mM | 5600 µM | remained stable during the 5 months
